Results as given in ChEMBL document CHEMBL1139194, “Antitumor agents. 256. Conjugation of paclitaxel with other antitumor agents: evaluation of novel conjugates as cytotoxic agents” (Bioorg Med Chem Lett, 2007).

Legend:
A549 = experiment: Cytotoxicity against human A549 cells by sulforhodamine B assay; format: functional; conditions: read-out: ED50 (the source's name)
LNCaP = experiment: Cytotoxicity against human LNCAP cells by sulforhodamine B assay; format: functional; conditions: read-out: ED50 (the source's name)
1A9 = experiment: Cytotoxicity against human 1A9 cells by sulforhodamine B assay; format: functional; conditions: read-out: ED50 (the source's name)
[1] = Cytotoxicity against human MRC5 cells by sulforhodamine B assay; format: cell-based; conditions: read-out: ED50 (the source's name)
DU-145 = experiment: Cytotoxicity against human DU145 cells by sulforhodamine B assay; format: functional; conditions: read-out: ED50 (the source's name)
MCF7 = experiment: Cytotoxicity against human MCF7 cells by sulforhodamine B assay; format: functional; conditions: read-out: ED50 (the source's name)
PC-3 = experiment: Cytotoxicity against human PC3 cells by sulforhodamine B assay; format: functional; conditions: read-out: ED50 (the source's name)
KB = experiment: Cytotoxicity against human KB cells by sulforhodamine B assay; format: functional; conditions: read-out: ED50 (the source's name)
[2] = Cytotoxicity against multi drug-resistant human KBVIN cells by sulforhodamine B assay; format: functional; conditions: read-out: ED50 (the source's name)
HUVEC = experiment: Antiangiogenesis activity against HUVEC cells; format: functional; conditions: Homo sapiens, read-out: ED50 (the source's name)

SMILES | EC50 (A549) | EC50 (LNCaP) | EC50 (1A9) | CC50 [1] | EC50 (DU-145) | EC50 (MCF7) | EC50 (PC-3) | EC50 (KB) | EC50 [2] | EC50 (HUVEC)
COc1cc([C@@H]2c3cc4c(cc3[C@@H](Nc3ccc(C(=O)NCCCC(=O)O[C@@H](C(=O)O[C@H]5C[C@@]6(O)[C@@H](OC(=O)c7ccccc7)[C@@H]7[C@]8(OC(C)=O)CO[C@@H]8C[C@H](O)[C@@]7(C)C(=O)[C@H](OC(C)=O)C(=C5C)C6(C)C)[C@@H](NC(=O)c5ccccc5)c5ccccc5)cc3)[C@H]3COC(=O)[C@H]23)OCO4)cc(OC)c1O | 0.0237 µM | 0.0102 µM | 0.0081 µM | 6.17 µM | 0.0325 µM | 0.0221 µM | 0.0428 µM | 0.0139 µM | 6.23 µM | 
CC[C@@]1(O)C(=O)OCn2c1cc1c(c2=O)Cc2c-1nc1ccccc1c2C=O | 0.0128 µM | 0.0043 µM | 0.0043 µM |  | 0.0077 µM | 0.0043 µM | 0.0184 µM | 0.0806 µM | 0.025 µM | 
CC[C@@]1(O)C(=O)OCn2c1cc1c(c2=O)Cc2c-1nc1ccccc1c2/C=N/CCCC(=O)O[C@@H](C(=O)O[C@H]1C[C@@]2(O)[C@@H](OC(=O)c3ccccc3)[C@@H]3[C@]4(OC(C)=O)CO[C@@H]4C[C@H](O)[C@@]3(C)C(=O)[C@H](OC(C)=O)C(=C1C)C2(C)C)[C@@H](NC(=O)c1ccccc1)c1ccccc1 | 0.0019 µM | 0.00034 µM | 0.001 µM | 0.244 µM | 0.0019 µM | 0.0341 µM | 0.0194 µM | 0.0015 µM | 0.0563 µM | 0.00098 µM
COc1ccc2c(c1)[C@@H](/N=C/c1ccc(C(=O)O[C@H]3C[C@H]4OC[C@@]4(OC(C)=O)[C@H]4[C@H](OC(=O)c5ccccc5)[C@]5(O)C[C@H](OC(=O)[C@H](O)[C@@H](NC(=O)c6ccccc6)c6ccccc6)C(C)=C([C@@H](OC(C)=O)C(=O)[C@]34C)C5(C)C)cc1)CCc1cc(OC)c(OC)c(OC)c1-2 | 0.0038 µM |  | 0.0023 µM |  |  |  |  | 0.0023 µM | 0.308 µM | 0.293 µM
COc1cc([C@@H]2c3cc4c(cc3[C@@H](N)[C@H]3COC(=O)[C@H]23)OCO4)cc(OC)c1O | 1.07 µM | 0.68 µM | 0.739 µM |  | 3.11 µM | 0.686 µM | 1.23 µM | 0.111 µM | 2.05 µM | 
COc1cc([C@@H]2c3cc4c(cc3[C@@H](/N=C/c3ccc(C(=O)O[C@H]5C[C@H]6OC[C@@]6(OC(C)=O)[C@H]6[C@H](OC(=O)c7ccccc7)[C@]7(O)C[C@H](OC(=O)[C@H](O)[C@@H](NC(=O)c8ccccc8)c8ccccc8)C(C)=C([C@@H](OC(C)=O)C(=O)[C@]56C)C7(C)C)cc3)[C@H]3COC(=O)[C@H]23)OCO4)cc(OC)c1O | 0.111 µM | 0.0901 µM | 0.0601 µM |  | 0.139 µM | 0.0486 µM | 0.145 µM | 0.0538 µM | 6.22 µM | 0.23 µM
COc1ccc2c(c1)[C@@H](/N=C/c1ccc(C(=O)O[C@@H](C(=O)O[C@H]3C[C@@]4(O)[C@@H](OC(=O)c5ccccc5)[C@@H]5[C@]6(OC(C)=O)CO[C@@H]6C[C@H](O)[C@@]5(C)C(=O)[C@H](OC(C)=O)C(=C3C)C4(C)C)[C@@H](NC(=O)c3ccccc3)c3ccccc3)cc1)CCc1cc(OC)c(OC)c(OC)c1-2 | 0.0038 µM |  | 0.0023 µM |  |  |  |  | 0.0054 µM | 0.308 µM | 0.043 µM
COc1cc2c(c(OC)c1O)-c1ccc(SC)c(=O)cc1[C@@H](NC(C)=O)CC2 | 0.0998 µM | 0.0599 µM | 0.0436 µM |  | 0.114 µM | 0.0599 µM | 0.112 µM | 0.0479 µM | 7.43 µM | 
CC[C@@]1(O)C(=O)OCn2c1cc1c(c2=O)Cc2c-1nc1ccccc1c2/C=N/CCC(=O)O[C@@H](C(=O)O[C@H]1C[C@@]2(O)[C@@H](OC(=O)c3ccccc3)[C@@H]3[C@]4(OC(C)=O)CO[C@@H]4C[C@H](O)[C@@]3(C)C(=O)[C@H](OC(C)=O)C(=C1C)C2(C)C)[C@@H](NC(=O)c1ccccc1)c1ccccc1 | 0.0026 µM | 0.003 µM | 0.0016 µM | 0.178 µM | 0.0037 µM | 0.0267 µM | 0.0148 µM | 0.0013 µM | 0.0624 µM | 0.00073 µM
CC[C@@]1(O)C(=O)OCc2c1cc1n(c2=O)Cc2cc3ccccc3nc2-1 [CAMPTOTHECIN] | 0.0069 µM | 0.002 µM | 0.0032 µM |  | 0.0109 µM | 0.0032 µM | 0.0167 µM | 0.0209 µM | 0.015 µM | 
CC(=O)O[C@H]1C(=O)[C@@]2(C)[C@H]([C@H](OC(=O)c3ccccc3)[C@]3(O)C[C@H](OC(=O)[C@H](O)[C@@H](NC(=O)c4ccccc4)c4ccccc4)C(C)=C1C3(C)C)[C@]1(OC(C)=O)CO[C@@H]1C[C@@H]2O [PACLITAXEL] | 0.0023 µM | 0.0026 µM | 0.001 µM |  | 0.0013 µM | 0.0011 µM | 0.0555 µM | 0.0018 µM | 0.311 µM | 
COc1cc2c(c(OC)c1O)-c1ccc(OC)c(=O)cc1[C@@H](NC(C)=O)CC2 [2-DESMETHYLCOLCHICIN] | 0.951 µM | 0.325 µM | 0.184 µM |  | 0.612 µM | 0.361 µM | 0.475 µM | 0.146 µM | 29 µM | 
COc1cc([C@@H]2c3cc4c(cc3[C@@H](NCc3ccc(C(=O)O[C@H]5C[C@H]6OC[C@@]6(OC(C)=O)[C@H]6[C@H](OC(=O)c7ccccc7)[C@]7(O)C[C@H](OC(=O)[C@H](O)[C@@H](NC(=O)c8ccccc8)c8ccccc8)C(C)=C([C@@H](OC(C)=O)C(=O)[C@]56C)C7(C)C)cc3)[C@H]3COC(=O)[C@H]23)OCO4)cc(OC)c1O | 0.123 µM | 0.129 µM | 0.0757 µM |  | 0.168 µM | 0.0682 µM | 0.192 µM | 0.0874 µM | 5.2 µM | 
COc1cc([C@@H]2c3cc4c(cc3[C@@H](O[C@H]3O[C@H]5CO[C@H](C)O[C@@H]5[C@@H](O)[C@@H]3O)[C@H]3COC(=O)[C@H]23)OCO4)cc(OC)c1O | 1.61 µM | 0.53 µM | 0.285 µM | > 0.03 µM | 1.6 µM | 11.7 µM | 9.45 µM | 1.36 µM | 14.4 µM | 
CC[C@@]1(O)C(=O)OCn2c1cc1c(c2=O)Cc2c-1nc1ccccc1c2CNCCC(=O)O[C@@H](C(=O)O[C@H]1C[C@@]2(O)[C@@H](OC(=O)c3ccccc3)[C@@H]3[C@]4(OC(C)=O)CO[C@@H]4C[C@H](O)[C@@]3(C)C(=O)[C@H](OC(C)=O)C(=C1C)C2(C)C)[C@@H](NC(=O)c1ccccc1)c1ccccc1 | 0.0026 µM | 0.0012 µM | 0.0015 µM | 6.13 µM | 0.0023 µM | 0.0027 µM | 0.0031 µM | 0.0019 µM | 2.05 µM | 0.00209 µM
